From PMC4220016, “The binding characteristics and orientation of a novel radioligand with distinct properties at 5-HT3A and 5-HT3AB receptors” (Neuropharmacology, 2014)
Where “and” joins values, the source holds several entries; their conditions need not be identical. Identical values can stand only once. Like-named read-outs stand apart in the source and are kept apart here.

How the values were obtained:
[1] = biological target: T1, 5-HT3A receptors (Homo sapiens, UniProt P46098); assay: Kinetic measurements (association, dissociation) at 5-HT3A receptors; format: binding; set-up: expressed in transfected cells; host or cells: HEK 293; settings: calculated from kinetic rates, Equ (4), read-out: Kd(nM) (kon/koff)
T1 sequence (P46098 24-478): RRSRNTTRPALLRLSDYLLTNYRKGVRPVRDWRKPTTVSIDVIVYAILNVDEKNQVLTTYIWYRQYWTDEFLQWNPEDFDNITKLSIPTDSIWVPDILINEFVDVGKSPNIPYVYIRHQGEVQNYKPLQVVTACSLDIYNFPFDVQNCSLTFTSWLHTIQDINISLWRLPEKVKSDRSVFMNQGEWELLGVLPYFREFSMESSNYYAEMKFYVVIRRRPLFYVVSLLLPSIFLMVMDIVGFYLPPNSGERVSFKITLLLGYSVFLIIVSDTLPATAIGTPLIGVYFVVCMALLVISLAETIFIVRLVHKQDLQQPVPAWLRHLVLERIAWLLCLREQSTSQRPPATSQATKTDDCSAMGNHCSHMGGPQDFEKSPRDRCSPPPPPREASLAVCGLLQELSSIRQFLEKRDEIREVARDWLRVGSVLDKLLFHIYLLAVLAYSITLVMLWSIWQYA

[2] = biological target: T2, 5-HT3A receptor L126C (Homo sapiens, UniProt P46098, L121C); assay: Saturation binding of [^3H]VUF10166 at 5-HT3A receptor mutant; settings: L126C, Loop A; read-out: Kd (nM) Mean ± SEM
T2 construct: expressed in transfected cells; host or cells: HEK 293
Procedure: (§1) Mutagenesis was performed using the QuikChange method (Agilent Technologies Inc., California, USA) on human 5-HT3A cDNA (accession number: P46098) cloned into pcDNA3.1 (Invitrogen, Paisley, UK). Cysteine residues were substituted for amino acids throughout each of the binding loops A–E (Fig. 1). To facilitate comparisons with previous work, we use the numbering of the equivalent residues in the mouse 5-HT3A subunit; for human numbering 5 should be subtracted from each residue number.
(§2) All data were analysed using GraphPad Prism 4.03. […].

[3] = biological target: T3, 5-HT3A receptor F226C (Homo sapiens, UniProt P46098, F221C); assay: as above; settings: F226C, Loop C; read-out: Kd (nM) Mean ± SEM
T3 construct: expressed in transfected cells; host or cells: HEK 293
Procedure: as §1, §2

[4] = biological target: T4, 5-HT3A receptor Y153C (Homo sapiens, UniProt P46098, Y148C); assay: as above; settings: Y153C, Loop E; read-out: Kd (nM) Mean ± SEM
T4 construct: expressed in transfected cells; host or cells: HEK 293
Procedure: as §1, §2

[5] = biological target: T5, 5-HT3AB receptors (Homo sapiens, UniProt O95264+P46098); assay: Kinetic measurements (association, dissociation) at 5-HT3AB receptors; format: binding; set-up: expressed in transfected cells; host or cells: HEK 293; settings: from kinetic rates, Equ (4), read-out: Kd(nM) (kon/koff)
T5 sequence (P46098 24-478): T1 sequence (P46098 24-478)
T5 sequence (O95264 22-441): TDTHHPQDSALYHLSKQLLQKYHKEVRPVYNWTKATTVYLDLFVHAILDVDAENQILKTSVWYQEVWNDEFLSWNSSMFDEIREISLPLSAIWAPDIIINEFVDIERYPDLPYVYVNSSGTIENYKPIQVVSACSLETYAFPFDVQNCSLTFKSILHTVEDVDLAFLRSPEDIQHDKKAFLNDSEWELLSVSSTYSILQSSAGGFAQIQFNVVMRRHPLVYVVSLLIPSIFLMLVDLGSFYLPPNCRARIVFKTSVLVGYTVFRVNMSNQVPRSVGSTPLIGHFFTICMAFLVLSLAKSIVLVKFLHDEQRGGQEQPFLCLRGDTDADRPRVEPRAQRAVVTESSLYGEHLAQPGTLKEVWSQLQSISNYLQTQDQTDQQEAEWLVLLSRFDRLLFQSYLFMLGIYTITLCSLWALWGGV

[6] = biological target: T1, 5-HT3A receptors; assay: biochemical; format: binding; set-up: expressed in transfected cells; host or cells: HEK 293

T3 sequence (P46098 24-478 F221C): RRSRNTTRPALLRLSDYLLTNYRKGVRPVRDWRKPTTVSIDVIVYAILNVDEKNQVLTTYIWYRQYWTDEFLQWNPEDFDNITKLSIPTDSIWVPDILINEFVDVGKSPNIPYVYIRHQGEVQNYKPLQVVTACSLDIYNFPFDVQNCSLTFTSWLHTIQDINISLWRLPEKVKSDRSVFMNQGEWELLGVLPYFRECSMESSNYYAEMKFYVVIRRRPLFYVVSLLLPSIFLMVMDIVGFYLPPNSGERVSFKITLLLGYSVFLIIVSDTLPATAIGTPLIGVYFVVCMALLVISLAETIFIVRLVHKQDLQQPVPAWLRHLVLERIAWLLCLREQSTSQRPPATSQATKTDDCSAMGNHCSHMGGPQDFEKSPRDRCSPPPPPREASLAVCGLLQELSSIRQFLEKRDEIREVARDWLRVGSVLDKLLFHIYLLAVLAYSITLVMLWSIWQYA
T4 sequence (P46098 24-478 Y148C): as the sequence (P46098 24-478 F221C) above, with Y125C, C198F counted along it
T2 sequence (P46098 24-478 L121C): as the sequence (P46098 24-478 F221C) above, with L98C, C198F counted along it

`CN1CCN(c2nc3ccccc3nc2Cl)CC1` [[^3H]VUF10166] [2-chloro-3-(4-[^3H]methylpiperazin-1-yl)quinoxaline] was tested. Which Kd [1] did it give?
The Kd was 0.16 nM.

What about the Kd [2] of the same compound?
The Kd was 0.89 ± 0.19 nM.

And the Kd [3]?
Its Kd is 1.59 ± 0.08 nM.

What about the Kd [4] of the same compound?
The Kd was 2.03 ± 0.33 nM.

What about the Kd ([5]; first component) of the same compound?
Its Kd is 0.38 nM.

And the Kd ([5]; second component (>3 nM))?
Its Kd is 22 nM and 22.4 nM.

What about the Kd ([6]; 5-HT3A, tritiated ligand, transfected HEK 293 cells, 0 °C, read-out: Kd (nM) saturation) of the same compound?
The Kd was 0.18 nM.

What about the Kd ([6]; Wild Type, Table 5 series, read-out: Kd (nM) Mean ± SEM) of the same compound?
The Kd was 0.21 ± 0.04 nM.
